Measurements published in paper PMC5316407, “In vivo imaging of systemic transport and elimination of xenobiotics and endogenous molecules in mice” (Archives of Toxicology, 2016).
Values joined by “and” are separate entries in the source; they are usually repeats but may differ in a detail not shown here. Identical values can stand only once. “Also recorded” adds a separate entry of the source.

How the values were obtained:
Assay type in all cases: in vivo, mouse
[1] = Intravital two-photon imaging of hepatic transport after tail vein injection; settings: for Half-life: liver
Protocol: (§1) In vivo recordings were acquired using a custom modified inverted LSM MP7 (Zeiss, Jena, Germany) provided with a two-photon Chameleon Ultra II laser with a tuning range from 680 to 1080 nm and a maximum power of approximately 3.5 W at 800 nm. […] Images were acquired with an LD C-Apochromat 40×/1.1 water immersion objective. The temperature of the specimen was controlled with a matt coated incubation chamber (Solent Scientific, Segensworth, UK).
(§2) For in vivo imaging, 6- to 10-week-old male mice were initially anaesthetized with an intraperitoneal injection of ketamine (64 mg/kg), xylazine (7.2 mg/kg), acepromazine (1.7 mg/kg) and buprenorphine (0.08 mg/kg). […] For liver preparation, the abdominal skin was removed and a small midline incision below the sternum was made with surgical scissors. Subsequently, the falciform ligament was cautiously cut in order to dissociate the liver. […] The cover slip was put in a custom-made image platform from Plexiglas and fit into the stage of the microscope. The exposed liver was then covered with saline-soaked gauze. The temperature control of the incubation chamber was set at 36 °C. The quality of mouse preparation was verified by checking the breathing rate of the mouse and by the regular blood flow in the observed region. For the preparation of the kidney, the mouse was placed on its right side and a small incision made in the left flank region. The convex side of the left kidney was exposed via gentle pressure on the abdominal wall. In order to avoid dryness, the exposed kidney was covered with saline-moistened gauze during imaging. For intestine imaging, an incision was made on the right side of the abdominal wall. The intestine was gently pulled out using a moistened cotton-tipped applicator. To reduce peristalsis, the intestine was incubated in a 1% atropine sulfate bath for 10 min. Subsequently, the intestine was placed in a glass bottom microwell dishes (MatTek corporation, MA, USA) containing 0.5% atropine sulfate bath during the entire recording period. In case of recordings exceeding 1 h, the mice were kept on maintenance anesthesia via a respiratory mask using an evaporator (IAS3801, FMI GmbH, Seeheim-Jugenheim, Germany) with 1–2% isoflurane and a subcutaneous injection of 0.5 ml saline was given.
(§3) Fluorescent markers or fluorescently labeled antibodies were injected via the tail vein before surgery or during recording via lateral tail vein catheters (SAI-infusion, IL, USA). […] All injected antibodies including anti-mouse CD11b, anti-mouse F4/80, anti-mouse NK1.1 and anti-mouse Ly6G (eBioscience, CA, USA) were phycoerythrin conjugated and administered in 100 µl PBS.
(§4) Recorded videos were quantified with the Zen software (Zeiss). Fluorescence intensity was quantified in defined regions of interest.
(§5) Pharmacokinetic analyses were performed with the MoBi® Toolbox for MATLAB (version 6.0.3; Bayer Technology Services GmbH, Leverkusen, Germany). PK-Sim® and MoBi® are freely available for non-commercial academic use.

[2] = Intravital two-photon imaging of intestinal transport (duodenum, capillaries to lacteal)
Protocol: as §1
as §2, with “Subsequently, the intestine was placed in a glass bottom microwell dishes (MatTek corporation, MA, USA) containing 0.5% atropine sulfate bath during the entire recording period. In case of recordings exceeding 1 h, the mice were kept on maintenance anesthesia via a respiratory mask using an evaporator (IAS3801, FMI GmbH, Seeheim-Jugenheim, Germany) with 1–2% isoflurane and a subcutaneous injection of 0.5 ml saline was given.” left out
Recorded videos were quantified with the Zen software (Zeiss). Fluorescence intensity was quantified in defined regions of interest. […]

[3] = Intravital two-photon imaging of glomerular filtration and tubular transport in the kidney; settings: for Tmax: individual renal tubule; for Half-life: kidney
Protocol: as §1, §2, §3, §4, §5

For CC(CCC(=O)NC(CCCCNC(=S)Nc1ccc(-c2c3ccc(=O)cc-3oc3cc(O)ccc23)c(C(=O)O)c1)C(=O)O)C1CCC2C3C(O)CC4CC(O)CCC4(C)C3CC(O)C12C (stereo not shown) [CLF, cholyl-lysyl-fluorescein], the “Time to maximum homogenous signal in the cytosol of the hepatocytes” value ([1]; after intravenous injection of 2.5 mg/kg) was about 5 min, the “Enrichment in the LSEC/space of Dissé” value ([1]; after tail vein injection) was “transient enrichment” and the Half-life ([1]; LSEC/Dissé space) was 13.46 min. The Half-life ([1]; hepatocytes, nd^a = not detectable due to transportation in vesicles) was 34.17 min, the Half-life ([1]; sinusoids, fluorescence intensity after tail vein injection (CLF 2.5 mg/kg, dextran 30 mg/kg)) was 1.9 min and 1.89 min and the “Appearance in the liver sinusoids after tail vein injection” value ([1]; time after tail vein injection) was “approximately 15 s”. The “Transfer from intestinal blood capillaries into lymphatic vessels (lacteals), blood-lacteal barrier” value ([2]; after intravenous injection) was “found in traces in the lymphatic vessels; also recorded: virtually impermeable”, the “Transport from intestinal capillaries into intestinal crypt cells and secretion into the intestinal lumen” value ([2]; after intravenous injection) was “No transport” and the Half-life ([2]; intestine, blood vessels) was 1.45 min. The Tmax ([3]; Fig. 7, Tubule: 1) was 0.38 min, the Tmax ([3]; Fig. 7, Tubule: 2) was 0.38 min and the Tmax ([3]; Fig. 7, Tubule: 3) was 0.40 min. The Tmax ([3]; Fig. 7, Tubule: 4) was 0.75 min, the Tmax ([3]; Fig. 7, Tubule: 5) was 0.45 min and the Tmax ([3]; Fig. 7, Tubule: 6) was 0.35 min. The Tmax ([3]; Fig. 7, Tubule: 7) was 3.22 min, the Tmax ([3]; Fig. 7, Tubule: 8) was 2.82 min and the Tmax ([3]; Fig. 7, Tubule: 9) was 3.34 min. The Tmax ([3]; Fig. 7, Tubule: 10) was 3.34 min, the Tmax ([3]; Fig. 7, Tubule: 11) was 0.40 min and the Tmax ([3]; Fig. 7, Tubule: 12) was 0.50 min. For the same molecule, the Tmax ([3]; Fig. 7, Tubule: 13) was 3.24 min, the Tmax ([3]; Fig. 7, Tubule: 14) was 0.37 min and the Tmax ([3]; Fig. 7, Tubule: 15) was 3.19 min. The Half-life ([3]; Bowman's space) was 2.19 min, the Half-life ([3]; glomerular capillaries) was 2.3 min and 2.33 min and the Half-life ([3]; proximal tubule) was 4.88 min. The “Time to maximum (T max) fluorescence, distal tubules” value ([3]; tubular lumina, range over imaged tubules) was 2.82 to 3.34 min.
